Source: ChEMBL document CHEMBL1134632, “Long lasting antinociceptive properties of enkephalin degrading enzyme (NEP and APN) inhibitor prodrugs” (J Med Chem, 2001)

Biological target: Neprilysin (Homo sapiens, UniProt P08473)
Experiment: Compound was evaluated for inhibition of enkephalin degrading enzyme, neutral endopeptidase (NEP)

Sequence of Neprilysin (P08473 whole entry): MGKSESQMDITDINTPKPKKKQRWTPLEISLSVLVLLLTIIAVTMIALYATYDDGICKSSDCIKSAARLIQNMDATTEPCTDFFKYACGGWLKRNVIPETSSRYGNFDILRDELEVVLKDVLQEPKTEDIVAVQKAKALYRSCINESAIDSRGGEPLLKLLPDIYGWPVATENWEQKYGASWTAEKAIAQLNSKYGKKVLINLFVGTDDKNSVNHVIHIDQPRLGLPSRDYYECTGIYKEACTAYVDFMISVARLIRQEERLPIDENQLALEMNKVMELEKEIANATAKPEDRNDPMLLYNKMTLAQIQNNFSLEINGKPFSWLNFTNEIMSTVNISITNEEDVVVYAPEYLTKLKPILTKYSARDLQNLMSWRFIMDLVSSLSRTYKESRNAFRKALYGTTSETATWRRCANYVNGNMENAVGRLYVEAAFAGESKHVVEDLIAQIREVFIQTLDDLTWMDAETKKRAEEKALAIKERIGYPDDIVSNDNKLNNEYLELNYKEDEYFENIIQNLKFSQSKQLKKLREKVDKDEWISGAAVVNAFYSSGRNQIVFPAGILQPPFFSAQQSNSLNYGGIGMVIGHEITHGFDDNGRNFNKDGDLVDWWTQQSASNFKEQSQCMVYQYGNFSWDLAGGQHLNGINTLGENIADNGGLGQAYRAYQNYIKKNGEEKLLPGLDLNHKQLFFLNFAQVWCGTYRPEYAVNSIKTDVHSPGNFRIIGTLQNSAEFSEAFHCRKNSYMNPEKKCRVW

Question: How did the Ki turn out when `CSCC[C@H](N)CSSC[C@@H](Cc1ccccc1)C(=O)NC(Cc1ccccc1)C(=O)OCc1ccccc1` (stereo partly specified) was run?
Answer: 2 nM
